Read-outs that look alike come from different tables or passages of the source.
Assay: Plasma pharmacokinetics after single oral dose of Δ8-THCV in MCT oil (LC-MS/MS, non-compartmental analysis)
Format: in vivo, human
Set-up: Clast (last quantifiable concentration): unit not given here
Settings: for Clast (last quantifiable concentration) / tlast (time to last quantifiable concentration) / concentration at 0.5 h / concentration at 1 h / concentration at 2 h / concentration at 4 h / concentration at 6 h / concentration at 8 h / Tmax / AUC(0-t) / Cmax / MRT: plasma; for plasma concentration: Predose; for concentration at 0.5 h / concentration at 1 h / concentration at 2 h / concentration at 4 h / concentration at 6 h / concentration at 8 h / Tmax / AUC(0-t) / Cmax / MRT: human; for Tmax: read-out: tmax; for MRT: read-out: MRT (mean residence time)
In short: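 Healthy participants received single oral Δ8-THCV in MCT oil (50 mg/mL; 12.5-200 mg, or placebo) after a high-fat, high-calorie breakfast, with ≥1-week washout. Plasma (K2EDTA) sampled predose and 0.5-8 h post-dose, assayed by validated LC-MS/MS including metabolites; PK by non-compartmental analysis, sub-LLOQ values set to 0.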

[1] = 12.5 mg single oral Δ8-THCV in MCT oil, Mean (±SD)
[2] = 12.5 mg single oral Δ8-THCV in MCT oil, Median (Range)
[3] = 25 mg single oral Δ8-THCV in MCT oil, Mean (±SD)
[4] = 25 mg single oral Δ8-THCV in MCT oil, Median (Range)
[5] = 50 mg single oral Δ8-THCV in MCT oil, Mean (±SD)
[6] = 50 mg single oral Δ8-THCV in MCT oil, Median (Range)
[7] = 100 mg single oral Δ8-THCV in MCT oil, Mean (±SD)
[8] = 100 mg single oral Δ8-THCV in MCT oil, Median (Range)
[9] = 200 mg single oral Δ8-THCV in MCT oil, Mean (±SD)
[10] = 200 mg single oral Δ8-THCV in MCT oil, Median (Range)
[11] = oral, 12.5 mg, 12.5 mg Δ8-THCV dose, Mean (SD, %CV)
[12] = oral, 12.5 mg, 12.5 mg Δ8-THCV dose, Median (IQ Range)
[13] = oral, 25 mg, 25 mg Δ8-THCV dose, Mean (SD, %CV)
[14] = oral, 25 mg, 25 mg Δ8-THCV dose, Median (IQ Range)
[15] = oral, 50 mg, 50 mg Δ8-THCV dose, Mean (SD, %CV)
[16] = oral, 50 mg, 50 mg Δ8-THCV dose, Median (IQ Range)
[17] = oral, 100 mg, 100 mg Δ8-THCV dose, Mean (SD, %CV)
[18] = oral, 100 mg, 100 mg Δ8-THCV dose, Median (IQ Range)
[19] = oral, 200 mg, 200 mg Δ8-THCV dose, Mean (SD, %CV)
[20] = oral, 200 mg, 200 mg Δ8-THCV dose, Median (IQ Range)
[21] = po, 12.5 mg, 12.5 mg single oral Δ8-THCV in MCT oil, Mean (±SD)
[22] = po, 12.5 mg, 12.5 mg single oral Δ8-THCV in MCT oil, Median (Range)
[23] = po, 25 mg, 25 mg single oral Δ8-THCV in MCT oil, Mean (±SD)
[24] = po, 25 mg, 25 mg single oral Δ8-THCV in MCT oil, Median (Range)
[25] = po, 50 mg, 50 mg single oral Δ8-THCV in MCT oil, Mean (±SD)
[26] = po, 50 mg, 50 mg single oral Δ8-THCV in MCT oil, Median (Range)
[27] = po, 100 mg, 100 mg single oral Δ8-THCV in MCT oil, Mean (±SD)
[28] = po, 100 mg, 100 mg single oral Δ8-THCV in MCT oil, Median (Range)
[29] = po, 200 mg, 200 mg single oral Δ8-THCV in MCT oil, Mean (±SD)
[30] = po, 200 mg, 200 mg single oral Δ8-THCV in MCT oil, Median (Range)

CCCc1cc(O)c2c(c1)OC(C)(C)[C@@H]1CCC(C(=O)O)=C[C@@H]21 [Δ9-THCV-COOH, 11-nor-9-carboxy-Δ9-THCV]
Clast (last quantifiable concentration) [1]: 1.9 (±0.8)
tlast (time to last quantifiable concentration) [1]: 6.8 (±1.7)
Clast (last quantifiable concentration) [2]: 1.7 (1.1–3.3)
tlast (time to last quantifiable concentration) [2]: 8 (4–8)
Clast (last quantifiable concentration) [3]: 2.6 (±1)
tlast (time to last quantifiable concentration) [3]: 7.6 (±1.2)
Clast (last quantifiable concentration) [4]: 2.4 (1.3–4.4)
tlast (time to last quantifiable concentration) [4]: 8 (4–8)
Clast (last quantifiable concentration) [5]: 5.4 (±1.9)
tlast (time to last quantifiable concentration) [5]: 8 (±0)
Clast (last quantifiable concentration) [6]: 5.2 (2.4–8.5)
tlast (time to last quantifiable concentration) [6]: 8 (8–8)
Clast (last quantifiable concentration) [7]: 10.8 (±3.7)
tlast (time to last quantifiable concentration) [7]: 8 (±0)
Clast (last quantifiable concentration) [8]: 10.5 (6.2–16.1)
tlast (time to last quantifiable concentration) [8]: 8 (8–8)
Clast (last quantifiable concentration) [9]: 29.2 (±16.1)
tlast (time to last quantifiable concentration) [9]: 8 (±0)
Clast (last quantifiable concentration) [10]: 26.3 (10.9–63.8)
tlast (time to last quantifiable concentration) [10]: 8 (8–8)
plasma concentration (12.5 mg Δ8-THCV dose, Mean (SD, %CV)): 0 (±0, --) ng/mL
plasma concentration (12.5 mg Δ8-THCV dose, Median (IQ Range)): 0 (0–0) ng/mL
plasma concentration (25 mg Δ8-THCV dose, Mean (SD, %CV)): 0 (±0, --) ng/mL
plasma concentration (25 mg Δ8-THCV dose, Median (IQ Range)): 0 (0–0) ng/mL
plasma concentration (50 mg Δ8-THCV dose, Mean (SD, %CV)): 0 (±0, --) ng/mL
plasma concentration (50 mg Δ8-THCV dose, Median (IQ Range)): 0 (0–0) ng/mL
plasma concentration (100 mg Δ8-THCV dose, Mean (SD, %CV)): 0 (±0, --) ng/mL
plasma concentration (100 mg Δ8-THCV dose, Median (IQ Range)): 0 (0–0) ng/mL
plasma concentration (200 mg Δ8-THCV dose, Mean (SD, %CV)): 0 (±0, --) ng/mL
plasma concentration (200 mg Δ8-THCV dose, Median (IQ Range)): 0 (0–0) ng/mL
concentration at 0.5 h [11]: 0 ng/mL
concentration at 0.5 h [12]: 0 ng/mL
concentration at 1 h [11]: 0.1 ng/mL
concentration at 1 h [12]: 0 ng/mL
concentration at 2 h [11]: 0.5 ng/mL
concentration at 2 h [12]: 0 ng/mL
concentration at 4 h [11]: 1.9 ng/mL
concentration at 4 h [12]: 1.8 ng/mL
concentration at 6 h [11]: 1.5 ng/mL
concentration at 6 h [12]: 1.3 ng/mL
concentration at 8 h [11]: 1.2 ng/mL
concentration at 8 h [12]: 1.4 ng/mL
concentration at 0.5 h [13]: 0 ng/mL
concentration at 0.5 h [14]: 0 ng/mL
concentration at 1 h [13]: 0.7 ng/mL
concentration at 1 h [14]: 0 ng/mL
concentration at 2 h [13]: 1.6 ng/mL
concentration at 2 h [14]: 1.7 ng/mL
concentration at 4 h [13]: 3.7 ng/mL
concentration at 4 h [14]: 3.6 ng/mL
concentration at 6 h [13]: 3 ng/mL
concentration at 6 h [14]: 2.4 ng/mL
concentration at 8 h [13]: 2.3 ng/mL
concentration at 8 h [14]: 2.3 ng/mL
concentration at 0.5 h [15]: 0 ng/mL
concentration at 0.5 h [16]: 0 ng/mL
concentration at 1 h [15]: 0.6 ng/mL
concentration at 1 h [16]: 0 ng/mL
concentration at 2 h [15]: 2.3 ng/mL
concentration at 2 h [16]: 0 ng/mL
concentration at 4 h [15]: 5.4 ng/mL
concentration at 4 h [16]: 5 ng/mL
concentration at 6 h [15]: 6.7 ng/mL
concentration at 6 h [16]: 5.9 ng/mL
concentration at 8 h [15]: 5.4 ng/mL
concentration at 8 h [16]: 5.2 ng/mL
concentration at 0.5 h [17]: 0.3 ng/mL
concentration at 0.5 h [18]: 0 ng/mL
concentration at 1 h [17]: 5.8 ng/mL
concentration at 1 h [18]: 1.9 ng/mL
concentration at 2 h [17]: 9.2 ng/mL
concentration at 2 h [18]: 8.7 ng/mL
concentration at 4 h [17]: 16.1 ng/mL
concentration at 4 h [18]: 16 ng/mL
concentration at 6 h [17]: 15.6 ng/mL
concentration at 6 h [18]: 17.5 ng/mL
concentration at 8 h [17]: 10.8 ng/mL
concentration at 8 h [18]: 10.5 ng/mL
concentration at 0.5 h [19]: 0.1 ng/mL
concentration at 0.5 h [20]: 0 ng/mL
concentration at 1 h [19]: 4.9 ng/mL
concentration at 1 h [20]: 2.7 ng/mL
concentration at 2 h [19]: 19.1 ng/mL
concentration at 2 h [20]: 9.4 ng/mL
concentration at 4 h [19]: 37.1 ng/mL
concentration at 4 h [20]: 40 ng/mL
concentration at 6 h [19]: 32.3 ng/mL
concentration at 6 h [20]: 28.5 ng/mL
concentration at 8 h [19]: 29.2 ng/mL
concentration at 8 h [20]: 26.3 ng/mL
Tmax (oral, present study, MCT oil formulation, as compared in discussion): 5 h
AUC(0-t) [21]: 7.9 ng·h/mL
Cmax [21]: 2.7 ng/mL
AUC(0-t) [22]: 5.6 ng·h/mL
Cmax [22]: 2.8 ng/mL
MRT [21]: 5.1 h
Tmax [21]: 5.1 h
MRT [22]: 5.3 h
Tmax [22]: 4 h
AUC(0-t) [23]: 18.3 ng·h/mL
Cmax [23]: 4.2 ng/mL
AUC(0-t) [24]: 19.6 ng·h/mL
Cmax [24]: 4.4 ng/mL
MRT [23]: 4.8 h
Tmax [23]: 4.6 h
MRT [24]: 4.6 h
Tmax [24]: 4 h
AUC(0-t) [25]: 33.4 ng·h/mL
Cmax [25]: 8.8 ng/mL
AUC(0-t) [26]: 30.8 ng·h/mL
Cmax [26]: 7.7 ng/mL
MRT [25]: 5.5 h
Tmax [25]: 5.1 h
MRT [26]: 5.5 h
Tmax [26]: 6 h
AUC(0-t) [27]: 92.5 ng·h/mL
Cmax [27]: 22.5 ng/mL
AUC(0-t) [28]: 86.5 ng·h/mL
Cmax [28]: 20.6 ng/mL
MRT [27]: 4.9 h
Tmax [27]: 4.5 h
MRT [28]: 4.6 h
Tmax [28]: 4 h
AUC(0-t) [29]: 201 ng·h/mL
Cmax [29]: 50.3 ng/mL
AUC(0-t) [30]: 190 ng·h/mL
Cmax [30]: 48.2 ng/mL
MRT [29]: 5.1 h
Tmax [29]: 5.3 h
MRT [30]: 5.2 h
Tmax [30]: 6 h
number of positive plasma samples (of 504 plasma samples from 15 participants after oral Δ8-THCV): 260
concentration in representative plasma sample (one subject after oral Δ8-THCV in MCT oil, Figure A1): 33.2 ng/mL

Reference: paper PMC11676667, “Pharmacokinetics of Oral Cannabinoid Δ8-Tetrahydrocannabivarin and Its Main Metabolites in Healthy Participants” (Pharmaceuticals, 2024)
